Values after ≈ are worked out from the molar mass of the structure shown.
Tests used:
Assay type in all cases: functional
[1] = test system: Mycobacterium tuberculosis; experiment: Antitubercular activity against rifampicin resistant Mycobacterium tuberculosis H37Rv ATCC 35838 after 24 hrs by MABA method; details: H37Rv ATCC 35838, 24 h
[2] = test system: Mycobacterium tuberculosis; experiment: Antitubercular activity against moxifloxacin resistant Mycobacterium tuberculosis H37Rv after 24 hrs by MABA method
[3] = test system: Mycobacterium tuberculosis; experiment: Antitubercular activity against bedaquiline resistant Mycobacterium tuberculosis H37Rv after 24 hrs by MABA method
[4] = test system: Mycobacterium tuberculosis; experiment: Antitubercular activity against isoniazid resistant Mycobacterium tuberculosis H37Rv ATCC 35822 after 24 hrs by MABA method; details: H37Rv ATCC 35822, 24 h
[5] = test system: Mycobacterium tuberculosis; experiment: Antitubercular activity against streptomycin resistant Mycobacterium tuberculosis H37Rv ATCC 35820 after 24 hrs by MABA method; details: H37Rv ATCC 35820, 24 h
[6] = test system: Mycobacterium tuberculosis; experiment: Antitubercular activity against capreomycin resistant Mycobacterium tuberculosis H37Rv after 24 hrs by MABA method

Structure (SMILES) | MIC90 [1] | MIC90 [2] | MIC90 [3] | MIC90 [4] | MIC90 [5] | MIC90 [6]
O=C(N/N=C/c1ccc2no[n+]([O-])c2c1)c1ccncc1 | 3.78 µM (≈ 1.07 µg/mL) | 5.72 µM (≈ 1.62 µg/mL) | 1.2 µM (≈ 0.34 µg/mL) | 8.59 µM (≈ 2.43 µg/mL) | 17 µM (≈ 4.81 µg/mL) | –
NC(=O)c1c(COc2ccc(/C=N/NC(=O)c3ccncc3)cc2)no[n+]1[O-] | 1.99 µM (≈ 0.761 µg/mL) | 0.66 µM (≈ 0.252 µg/mL) | 6.38 µM (≈ 2.44 µg/mL) | > 262 µM | > 262 µM | > 262 µM
C[C@@H]1NC(=O)[C@@H](N)CNC(=O)[C@H]([C@H]2CCNC(=N)N2)NC(=O)/C(=C/NC(N)=O)NC(=O)[C@H](CNC(=O)C[C@@H](N)CCCN)NC1=O | – | – | – | – | 1.72 µM (≈ 1.12 µg/mL) | 60.5 µM (≈ 39.5 µg/mL)
NC(=O)c1c(COc2ccccc2/C=N/NC(=O)c2ccncc2)no[n+]1[O-] | 0.44 µM (≈ 0.168 µg/mL) | 0.81 µM (≈ 0.31 µg/mL) | 0.81 µM (≈ 0.31 µg/mL) | > 262 µM | 27.4 µM (≈ 10.5 µg/mL) | > 262 µM
NC(=O)c1c(COc2cccc(/C=N/NC(=O)c3ccncc3)c2)no[n+]1[O-] | 2.31 µM (≈ 0.883 µg/mL) | 1.22 µM (≈ 0.466 µg/mL) | 2.56 µM (≈ 0.979 µg/mL) | > 262 µM | > 262 µM | > 262 µM
COc1nc2ccc(Br)cc2cc1[C@@H](c1ccccc1)[C@@](O)(CCN(C)C)c1cccc2ccccc12 [BEDAQUILINE] | 0.01 µM (≈ 0.00556 µg/mL) | 0.06 µM (≈ 0.0333 µg/mL) | 1.7 µM (≈ 0.944 µg/mL) | 0.01 µM (≈ 0.00556 µg/mL) | 0.06 µM (≈ 0.0333 µg/mL) | 0.06 µM (≈ 0.0333 µg/mL)
NNC(=O)c1ccncc1 [ISONIAZID] | 0.35 µM (≈ 0.048 µg/mL) | 0.28 µM (≈ 0.0384 µg/mL) | 0.23 µM (≈ 0.0315 µg/mL) | > 5 µM | > 5 µM | > 5 µM
COc1c(N2C[C@@H]3CCCN[C@@H]3C2)c(F)cc2c(=O)c(C(=O)O)cn(C3CC3)c12 [MOXIFLOXACIN] | 0.12 µM (≈ 0.0482 µg/mL) | > 8 µM | 0.26 µM (≈ 0.104 µg/mL) | 0.23 µM (≈ 0.0923 µg/mL) | 0.36 µM (≈ 0.145 µg/mL) | 0.35 µM (≈ 0.141 µg/mL)
CO[C@H]1/C=C/O[C@@]2(C)Oc3c(C)c(O)c4c(O)c(c(/C=N/N5CCN(C)CC5)c(O)c4c3C2=O)NC(=O)/C(C)=C\C=C\[C@H](C)[C@H](O)[C@@H](C)[C@@H](O)[C@@H](C)[C@H](OC(C)=O)[C@@H]1C [RIFAMPIN] | > 1 µM | – | 0.04 µM (≈ 0.0329 µg/mL) | 0.01 µM (≈ 0.00823 µg/mL) | 0.03 µM (≈ 0.0247 µg/mL) | 0.21 µM (≈ 0.173 µg/mL)
CN[C@@H]1[C@H](O[C@H]2[C@H](O[C@H]3[C@H](O)[C@@H](O)[C@H](N=C(N)N)[C@@H](O)[C@@H]3N=C(N)N)O[C@@H](C)[C@]2(O)C=O)O[C@@H](CO)[C@H](O)[C@H]1O [STREPTOMYCIN] | – | – | – | – | > 100 µM | 2.55 µM (≈ 1.48 µg/mL)
